Tests used:
[1] = in vivo
Description: 2. the chronic toxicity (rats and dogs),
4. the local and general tolerance,
5. the possible teratogenic effects, […]

[2] = tested on: "spatial disorientation" syndrome; test: effect on a "spatial disorientation" syndrome in the rat (aquatic labyrinth after electric shock); type: in vivo, rat (Wistar AF-Han)
Method: This study was carried out using male rats of the Wistar AF-Han EOPS strains weighing about 160 g and about 6 to 7 weeks old.
After being guided through once by the experimenter, the rats are first of all subjected to 4 tests in 2 days in an aquatic labyrinth described by GIURGEA and MOURAVIEFFLESUISSE (J. Pharmacol. PARIS, 1972, 3, 1, 17-30).
On the 3rd day, the rats are subjected to a supramaximal electric shock delivered by a Neurovac controlled by a CRC OC 342 oscillograph; the electric shock has the following characteristics: 100 Hz, 0.5 ms, 1 second, 60 volts.
After passing through the labyrinth 20 minutes after the electric shock, the rats are given their treatment by oesophageal tube. Two tests are carried out 40 and 100 minutes after treatment, i.e. 60 and 120 minutes after the electric shock, and the time taken to pass through the labyrinth by each animal is timed; the number of errors is also noted.
The rats are put on a diet of water for 18 hours after passing through for the 4th time. The compound is administered by intragastric route in a volume of 5 ml/kg.
time taken to leave the aquatic labyrinth;
average number of errors made in an effort to leave the labyrinth;
percentage of "normal" subjects, i.e. rats passing through the labyrinth with only 0-4 errors.

[3] = tested on: cortical electrogenesis disrupted by the presence of a unilateral cerebral oedema; test: effect on cortical electrogenesis disrupted by unilateral cerebral oedema in the unanaesthetised rabbit; type: in vivo
Method: 48 hours before use, the animal's cranium is exposed and stainless steel electrodes are screwed on so as to contact the dura mater on the frontal and occipital lobes on both sides of the median and transverse sutures. The electrocorticogram is recorded on a REEGA MINI HUIT TR electroencephalograph mounted transversely and longitudinally, whilst a 4th channel serves to record the electrocardiogram. Moreover, a flap of bone 7 to 10 mm in diameter was removed on one side, and this operation was not found, 48 hours later, to have caused any appreciable disruption of the electrical activity of the cortex.
An oedema was then produced by removing the dura mater and arachnoid; it usually takes the form of a hernia of the cortex. The treatment is then given and the electrocorticographic trace is monitored every hour during and after administration of the test products, then 24 and 48 hours later.
The action of the test products is assessed on the basic electrogenesis, particularly on the presence of slow waves and on the signs of cortical reactivity to two exteroceptive stimuli: a receptive stimulus (electrical tone lasting 2 seconds) and a nociceptive stimulation of the nerve endings in the skin by pinching the dorsal skin using KOCHER forceps.
The compounds are administered by either intravenous or intragastric route.

[4] = stability in acidic medium; type: physicochemical
[5] = acute toxicity in the mouse (LD50, SPEARMAN-KARBER method); conditions: in vivo
Method: (§1) The results of the study of the acute toxicity were as follows, the tests having been carried out on the mouse and rat, whilst the product was administered intravenously, subcutaneously and by oesophageal tube. The doses studied were administered in a volume of 1 ml/100 g of body weight, whilst each dose was administered to 5 males and 5 females; the LD 50 was investigated using the SPEARMAN-KARBER method.

[6] = tested on: low-pressure hypoxia; test: mortality caused by low-pressure hypoxia in the mouse; type: in vivo, mouse (NMRI-Han); set-up: survival time, average and standard deviation: unit not given here
Method: An artificial altitude was created by placing the mouse in a sealed box and progressively reducing the pressure to 190 mm of mercury (equivalent to about 10,000 meters altitude) using a CEM-type pump, so that the desired altitude is obtained in 1 minute 10 seconds on average. A stopwatch is then started and the exact time when the chest movements cease is noted. Any mouse whose survival time is more than twice the average value noted in the corresponding "solvent control" series is regarded as protected.
The ED50 was calculated from the percentage of "protected" mice using the graphical method indicated by LITCHFIELD and WILCOXON (J. Pharm. Exp. Ther., 1949, 96, 99-113).
The compound was administered by intraperitoneal route 20 minutes before the altitude is artifically created; whatever the dose, the volume injected was always equal to 20 ml/kg.
The effects were also examined after administration by oesophageal tube 60 minutes before the test, whilst the volume administered is always 20 ml/kg.
The entire study was carried out on adult male EOPS mice (4 to 5 weeks old) of the NMRI-Han strain, divided into random test groups after being fed only water for 18 hours.

[7] = acute toxicity in the rat (LD50, SPEARMAN-KARBER method); conditions: in vivo
Method: as §1

[8] = 50 mg/kg group, 20 minutes after electric shock (before treatment)
[9] = 50 mg/kg group, before electric shock (before treatment)
[10] = 50 mg/kg intragastric, 60 minutes after electric shock (40 minutes after treatment)
[11] = 50 mg/kg intragastric, 120 minutes after electric shock (100 minutes after treatment)
[12] = 100 mg/kg group, 20 minutes after electric shock (before treatment)
[13] = 100 mg/kg group, before electric shock (before treatment)
[14] = 100 mg/kg intragastric, 60 minutes after electric shock (40 minutes after treatment)
[15] = 100 mg/kg intragastric, 120 minutes after electric shock (100 minutes after treatment)

CCC12CCCN3CCC4(C(=Nc5ccccc54)C(O)(C(=O)OC)C1)C32 (single isomer, unassigned) [the compound]
tolerance [1]: tolerated well both orally and by parenteral or intramuscular route, without causing local or general reactions | average number of errors [2, 8]: 23.4 | average time taken to leave the aquatic labyrinth [2, 8]: 186 s | percentage of "normal" subjects (0-4 errors) [2, 8]: 0 percentage | average number of errors [2, 9]: 3.4 | average time taken to leave the aquatic labyrinth [2, 9]: 39 s | percentage of "normal" subjects (0-4 errors) [2, 9]: 80 percentage | average number of errors [2, 10]: 15.2 | average time taken to leave the aquatic labyrinth [2, 10]: 96 s | percentage of "normal" subjects (0-4 errors) [2, 10]: 28 percentage | average number of errors [2, 11]: 8.9 | average time taken to leave the aquatic labyrinth [2, 11]: 68 s | percentage of "normal" subjects (0-4 errors) [2, 11]: 52 percentage | average number of errors [2, 12]: 22.6 | average time taken to leave the aquatic labyrinth [2, 12]: 168 s | percentage of "normal" subjects (0-4 errors) [2, 12]: 0 percentage | average number of errors [2, 13]: 3.4 | average time taken to leave the aquatic labyrinth [2, 13]: 37 s | percentage of "normal" subjects (0-4 errors) [2, 13]: 77 percentage | average number of errors [2, 14]: 13.9 | average time taken to leave the aquatic labyrinth [2, 14]: 103 s | percentage of "normal" subjects (0-4 errors) [2, 14]: 17 percentage | average number of errors [2, 15]: 8.9 | average time taken to leave the aquatic labyrinth [2, 15]: 80 s | percentage of "normal" subjects (0-4 errors) [2, 15]: 47 percentage | recovery of memory ([2]; oral route, conclusion): accelerates the recovery of memory already instilled | effect on the development of electrogenesis in the cortex disrupted by unilateral cerebral oedema ([3]; conclusion, unanaesthetised rabbit): beneficial effect | increase of the value of the "R" index ([3]; intragastric, 5 mg/kg): ~30% | value of the "R" index ([3]; intragastric, 10 mg/kg, during the 8 hours following ingestion): a clear improvement in the value of the "R" index | activity with regard to oedema symptoms (spontaneous electrogenesis and duration of alert reactions) ([3]; intravenous, 0.5 mg, 1 mg and 2 mg/kg): has a therapeutic acitivity with regard to oedema symptoms | stability in an acidic medium [4]: unstable in an acidic medium | LD50 at 72 h ([5]; iv): 86 mg/kg | LD50 at 72 h ([5]; po): 860 mg/kg | LD50 at 72 h ([5]; sc): 176 mg/kg | survival time, average and standard deviation ([6]; 2.5 mg/kg i.p., 20 minutes before altitude): 88.4 ± 7.01 | survival time, average and standard deviation ([6]; 5.0 mg/kg i.p., 20 minutes before altitude): 108.5 ± 20.22 | survival time, average and standard deviation ([6]; 10.0 mg/kg i.p., 20 minutes before altitude): 155.7 ± 30.42 | survival time, average and standard deviation ([6]; 15 mg/kg i.p., 20 minutes before altitude): 179.6 ± 32.07 | survival time, average and standard deviation ([6]; 20 mg/kg i.p., 20 minutes before altitude): 275.4 ± 39.77 | survival time, average and standard deviation ([6]; 30 mg/kg i.p., 20 minutes before altitude): 308.5 ± 35.65 | survival time, average and standard deviation ([6]; 50 mg/kg p.o., 60 minutes before test): 122.6 ± 11.75 | survival time, average and standard deviation ([6]; 100 mg/kg p.o., 60 minutes before test): 186.8 ± 25.70 | survival time, average and standard deviation ([6]; 150 mg/kg p.o., 60 minutes before test): 179.7 ± 20.23 | survival time, average and standard deviation ([6]; 200 mg/kg p.o., 60 minutes before test): 287.0 ± 25.58 | survival time, average and standard deviation ([6]; 250 mg/kg p.o., 60 minutes before test): 306.5 ± 29.46 | survival time, average and standard deviation ([6]; 300 mg/kg p.o., 60 minutes before test): 281.6 ± 30.61 | protection from the toxic effects of artificial altitude ([6]; regardless of the route of administration): makes it possible to protect the mouse from the toxic effects of artificial altitude | LD50 at 72 h ([7]; iv): 63.4 mg/kg | LD50 at 72 h ([7]; po): 777 mg/kg | LD50 at 72 h ([7]; sc): 126 mg/kg
